Test results as given in paper PMC12163635, “Synthetic Retinoids for the Modulation of Genomic and Nongenomic Processes in Neurodegenerative Diseases” (ACS Omega, 2025).

Columns and labels:
[1] = tested on: Sil-15 cells containing a RARE driving a lacZ reporter; assay: X-Gal-based RA reporter assay (genomic response); type: cell-based; set-up: genomic response Emax (±95% CI): unit not given here; conditions: for genomic response Emax (±95% CI) / EC50: Sil-15 reporter cells; for genomic response Emax (±95% CI): absorbance at 650 nm; for EC50: read-out: genomic response EC50 (±95% CI), overnight, 10^–6 to 10^–14 M; for genomic EC50 compared with ATRA: nonoverlapping 95% CI
Description: Following chemical design and synthesis, the synthetic retinoid library was screened for genomic and nongenomic biological activities and compared to the response of the endogenous retinoid, ATRA. In these assays, the EC50 value represented the concentration of retinoid that gave half-maximal response (potency), while the E max value represented the maximum response achievable from the retinoid (efficacy).
The transcriptional genomic activity of the retinoids was quantified using Sil-15 cells containing a RARE driving a lacZ reporter. […] Twenty-two of the synthetic retinoids were effective in inducing genomic activity. […] In addition, the retinoids varied in their efficacies.
The Sil-15 cell line was used in the X-gal RA reporter assay described below. The cells were grown in Dulbecco’s modified Eagle’s medium (DMEM) containing 10% fetal bovine serum (FCS) (Invitrogen/Gibco), 0.6% penicillin-streptomycin (Gibco) and 0.8 mg/mL G418 sulfate (Sigma) for selection. They were maintained in a humidified atmosphere containing 5% CO2 at 37 °C. The medium was changed three times a week and the cells were passaged at 70% confluence using 0.05% trypsin-EDTA.
Sil-15 cells are F9 teratocarcinoma cells stably transfected with a plasmid containing the LacZ gene under the control of a DR5-type RA response element (RARE). The reporter cell line was used to detect the transcriptional genomic activity of ATRA and other retinoids by colorimetrically quantifying the insoluble blue product generated by β-galactosidase from X-gal during the assay. The assay was performed by plating 100,000 cells per well in the 0.1% gelatin-coated 96-well plates and leaving them to attach overnight. The ATRA/retinoids dilutions ranging from 10^–6 to 10^–14 M were incubated on the reporter cells overnight at 37 °C, in 5% CO2. A standard curve of ATRA was included in each experiment to ensure the reproducibility of the results between assays performed on different days. All the assays for ATRA as well as the retinoids were quantified in triplicate. Serial dilutions of retinoids were prepared from a stock solution under red/orange light. The stock solutions prepared in DMSO for each retinoid varied depending on the solubility of each compound. Each stock was stored at −20 °C and protected from light. The next day, Sil-15 cells were washed with PBS, fixed with 1% glutaraldehyde and 1 mM MgCl2 solution for 15 min, and developed in X-gal developing solution (0.2% X-Gal, 1 mM MgCl2, 3.3 mM potassium ferricyanide and 3.3 mM potassium ferrocyanide in PBS). The plates were read on an E max microplate reader (Molecular Devices) at 650 nm.
(§1) All data are presented as mean ± SEM of three independent experiments with biological triplicates. Statistical analyses were performed in Microsoft Office Excel 2019 or GraphPad Prism 7.0c version (Prism, GraphPad Software, San Diego, CA). Neurite outgrowth data were analyzed by one-way ANOVA with Newman-Keuls multiple comparison test as appropriate; P value <0.05 was considered statistically significant. *P < 0.05, **P < 0.01. Data for X-Gal and ERK1/2 phosphorylation were analyzed using sigmoidal dose–response analysis of log (agonist) versus response curve (stimulation).

[2] = tested on: ERK1/2 phosphorylation in SH-SY5Y cells; assay: ERK1/2 phosphorylation (nongenomic response), AlphaScreen SureFire; type: cell-based, human; conditions: for EC50: Homo sapiens, read-out: nongenomic response EC50 (±95% CI); for EC50 / nongenomic response Emax (±95% CI): SH-SY5Y cells, 1 h; for nongenomic E max compared with ATRA: nonoverlapping 95% CI
Method: After screening the retinoids for genomic responses, they were tested for their nongenomic ability to rapidly phosphorylate ERK1/2 in the SH-SY5Y cell line. ATRA is known as a potent activator of ERK1/2 − and was used as the standard for comparison. […] The efficacies of the remaining seven retinoids were similar to ATRA.
(§2) SH-SY5Y cell line as used in ERK phosphorylation and neurite outgrowth assays described below. The cells were grown in DMEM containing 10% FCS at 37 °C with 5% CO2. The medium was changed three times a week and the cells were passaged at 70% confluence using 0.05% trypsin-EDTA.
To quantify ERK1/2 phosphorylation, SH-SY5Y cells (100,000 cells/well) were plated onto 96-well plates and serum-starved for 24 h in DMEM. Cells were assayed in serum-free DMEM and stimulated for 60 min at 37 °C in a humidified atmosphere. Retinoids were tested at concentrations ranging from 10 to 4 to 10–11 M and at a final concentration of 0.1% DMSO. At the end of the assay, the medium was removed, and cells were lysed with lysis buffer supplied in the AlphaScreen SureFire ERK1/2 kit (PerkinElmer). The assay was performed in 384-well white Proxiplates according to the manufacturer’s instructions and using the beads supplied in the protein A general IgG detection kit (PerkinElmer). Briefly, 4 μL samples were incubated with 7 μL of the freshly prepared mixture containing donor and acceptor beads. Plates were incubated at room temperature and read with the Envision system (PerkinElmer Life Sciences) using AlphaScreen settings.
as §1

SH-SY5Y cells = assay: Neurite outgrowth; type: cell-based, human; conditions: 10 nM, 5 days
Method: Following the characterization of retinoids for their genomic and nongenomic activities, the ability of retinoids to differentiate and induce neurite outgrowth in the neuroblastoma cell line, SH-SY5Y cells, was examined (Figure ). Neurite outgrowth can be induced in this cell line by ATRA at 10 μM.
as §2
SH-SY5Y cells were plated at 10,000 cells/well in 12-well plates containing 16 mm acid-treated/poly L-lysine-coated glass coverslips. After 24 h, retinoids were added to the medium and tested at two different concentrations, 10 μM and 10 nM, with a final DMSO concentration of 0.01 or 0.0001%, respectively. The plates were incubated for 5 days at 5% CO2/37 °C. All retinoid concentrations were tested in triplicate. Cells were fixed using 4% paraformaldehyde and stained for β-III tubulin (1:1000; Sigma). For each neurite outgrowth experiment, 3 coverslips (in 3 wells) were used. ImageJ software with the NeuronJ plugin was used to quantify neurite outgrowth on stained cells in each of the 10 randomly selected images of each coverslip taken using a Nikon Eclipse E400 fluorescence microscope. The average neurite length was calculated for each image by dividing total neurite length by the total number of neurites per image.
as §1

Row | Compound | genomic response Emax (±95% CI) [1] | EC50 [1] | EC50 [2] | nongenomic response Emax (±95% CI) [2] | induction of neurite outgrowth compared with ATRA (SH-SY5Y cells) | genomic EC50 compared with ATRA [1] | nongenomic E max compared with ATRA [2]
1 | CC1=C(/C=C/C(C)=C/C=C/C(C)=C/C(=O)O)C(C)(C)CCC1 [ATRA, all-trans retinoic acid, reference compound] | 170 (±5.65) | 1.04 nM | 33.1 nM | 48.6 (±1.85) | does not significantly induce such outgrowth | – | –
2 | COc1cc2c(cc1C#Cc1ccc(C(=O)O)cc1F)C(C)(C)CCC2(C)C [Compound 21, 3-Fluoro-4-[2-(3-methoxy-5,5,8,8-tetramethyl-5,6,7,8-tetrahydronaphthalen-2-yl)ethynyl]benzoic Acid] | – | 5.31 nM | 90.8 nM | 36.9 (±2.86) | induced neurite outgrowth but not significantly compared to ATRA | significantly higher EC50 values than ATRA | E max values significantly lower than ATRA
3 | CC1(C)CCC(C)(C)c2cc(C#Cc3ccc(C(=O)O)cc3)ccc21 [EC23, reference compound] | 169 (±10.8) | 0.128 nM | 30.6 nM | 92.5 (±6.96) | induced significant neurite outgrowth compared to ATRA | significantly lower EC50 than ATRA | E max values significantly higher than ATRA
